Measurements published in patent US20260207604A1, “COMPOUND AND USE THEREOF” (ONQUALITY PHARMACEUTICALS CHINA LTD., priority 2022, published 2026).
pIC50: −log10 of the molar value. Read-outs that look alike come from different tables or passages of the source.

Legend:
CDK2/cyclin E = CDK2/cyclin E (Homo sapiens, UniProt P24941); test: KinaseProfile radiometric protein kinase assay, CDK2/cyclin E; type: biochemical
Protocol: (§1) The KinaseProfile radiometric protein kinase assay was used to evaluate the inhibitory activity of the compounds against CDK2/cyclin E, CDK4/cyclin D, CDK6/cyclin D, CDK7/cyclin H and CDK9/cyclin T.
(§2) The compounds were prepared in 100% DMSO at a final 50× stock concentration. The working stock solution was added as the first component to the assay wells. CDK2/cyclin E, CDK4/cyclin D, CDK6/cyclin D, CDK7/cyclin H, and CDK9/cyclin T were added in their respective kinase buffers: (CDK4: 8 mM MOPS pH 7.0, 0.2 mM EDTA, 0.03% BSA, 0.03% Tween 20, 20 mM DTT, and 0.2 mg/ml Rb fragment, 10 mM Magnesium acetate; CDK2, CDK6: 8 mM MOPS pH 7.0, 0.2 mM EDTA, 0.1 mg/mL histone H1, 10 mM Magnesium acetate; CDK7: 8 mM MOPS pH 7.0, 0.2 mM EDTA, 500 μM peptide, 10 mM Magnesium acetate; CDK9: 8 mM MOPS pH 7.0, 0.2 mM EDTA, 100 μM […], 10 mM Magnesium acetate) and [γ-^33 P-ATP] was included in the reaction mixture. The reaction was initiated by the addition of the Mg/ATP mixture and incubated at room temperature for 40 minutes. The reaction was terminated by the addition of 0.5% phosphoric acid. Then, 10 μL of the reaction mixture was spotted onto P30 filter pads, washed four times (1 minute each) with 0.425% phosphoric acid, followed by a single wash with methanol. The pads were then dried and counted. The data were recorded, inhibition rates were calculated, and IC50 values were determined accordingly. Table 2 summarizes the in vitro enzymatic inhibitory activity of the compounds of the present application.

CDK4/cyclin D = CDK4/cyclin D (Homo sapiens, UniProt P11802); test: KinaseProfile radiometric protein kinase assay, CDK4/cyclin D; type: biochemical
Protocol: as §1, §2

CDK6/cyclin D = CDK6/cyclin D (Homo sapiens, UniProt Q00534); test: KinaseProfile radiometric protein kinase assay, CDK6/cyclin D; type: biochemical
Protocol: as §1, §2

CDK7/cyclin H = CDK7/cyclin H (Homo sapiens, UniProt P50613); test: KinaseProfile radiometric protein kinase assay, CDK7/cyclin H; type: biochemical
Protocol: as §1, §2

CDK9/cyclin T = CDK9/cyclin T (Homo sapiens, UniProt P50750); test: KinaseProfile radiometric protein kinase assay, CDK9/cyclin T; type: biochemical
Protocol: as §1, §2

[1] = test system: MCF-7 human breast cancer cells; test: Cell viability assay (CELLTITER-GLO); type: cell-based; conditions: MCF7, 168 h, MCF-7 cells, 7 days
Protocol: The cell viability of MCF-7 human breast cancer cells under standard culture conditions was assessed using the CELLTITER-GLO assay. MCF-7 cells were seeded at 3,000 cells per well in 96-well plates and incubated overnight in a CO2 incubator. The next day, serial dilutions of Compound 1 at various concentrations were added to the wells. The plates were returned to the incubator and cultured for 7 days. After 7 days, the plates were equilibrated at room temperature for 30 minutes. Subsequently, 100 μL of CELLTITER-GLO detection solution was added. The cells were mixed on an orbital shaker for 5 min and then incubated for additional 10 min. The plate was read with an ENVISION reader. Data were processed and analyzed to determine the IC50 values.

[2] = test system: 5-FU-induced diarrhea model; test: 5-FU-induced diarrhea model, 5-FU 1-day model; type: in vivo, Balb/c mice; conditions: 5-FU 175 mg/kg once a day, mice
Source text: (§3) The 5-FU-induced diarrhea model was used as an experimental model of the present invention to evaluate the in vivo activity of the compounds.
Balb/c mice (20-25 g, 7-8 weeks old, Jihui) were acclimated for one week and then randomly assigned to 3 groups (n=10 per group): control group, 5-FU group, and CDK inhibitor group. The control group received the same vehicle as the CDK inhibitor group by oral gavage, followed by injection of the same vehicle as the 5-FU group. The 5-FU group received the same vehicle by oral gavage as the CDK inhibitor group, followed by 5-FU injection. The CDK inhibitor group received oral administration of the CDK inhibitor, followed by 5-FU injection. From day 1 to day 7, the severity of diarrhea was assessed for each mouse according to the diarrhea scoring system.
(§4) The diarrhea scoring system was based on the method by Akinobu Kurita (Cancer Chemother Pharmacol 2000; 46:211-20), Grade 0: normal stool; Grade 1: mild diarrhea, slightly soft stool and wet stool; Grade 2: moderate diarrhea, loose stool with slight perianal staining; Grade 3: severe diarrhea, loose watery stool with severe perianal staining.
(§5) The diarrhea relief rate (%) was calculated as follows: […]

[3] = test system: 5-FU-induced diarrhea model; test: 5-FU-induced diarrhea model, 5-FU 3-day model; type: in vivo, Balb/c mice; conditions: 5-FU 60 mg/kg once a day for 3 days, mice
Protocol: as §3
Balb/c mice (20-25 g, 7-8 weeks old, Jihui) were acclimated for one week and then randomly assigned to 3 groups (n=10 per group): control group, 5-FU group, and CDK inhibitor group. […] […] […] From Day 1 to Day 7, diarrhea severity was assessed daily for each mouse according to the diarrhea scoring system.
as §4, §5

[4] = test system: Irinotecan-induced constipation model; test: Irinotecan-induced constipation model; type: in vivo, Sprague-Dawley rats; conditions: irinotecan 260 mg/kg once a day, 1 day, rats
Source text: Sprague-Dawley rats (180-200 g, 7-8 weeks old, Jihui) were acclimated for 7 days and randomly divided into three groups: control group, irinotecan group, and CDK inhibitor group, with 10 rats per group. The control group received the same vehicle orally as the CDK inhibitor group, followed by an injection of the same vehicle as the irinotecan group; the irinotecan group received the same oral vehicle as the CDK inhibitor group, followed by an injection of irinotecan; the CDK inhibitor group received the CDK inhibitor orally, followed by an injection of irinotecan.
From Day 2 to Day 7, the degree of constipation was assessed for each rat based on the following score:
Constipation assessment: Feces excreted within a 3-hour period were collected and evaluated for morphology and weight using an electronic balance. Stool reduction rate was calculated according to the method of Ji Eun Kim (Lab Anim Res. 2016 December; 32(4): 231-240). Stool reduction rate (%)=(Control group−Irinotecan or CDK inhibitor group)/Control group×100%.
The constipation relief rate of the CDK inhibitor was calculated as follows: Relief rate (%)=([…])/Irinotecan group stool reduction rate×100%.

[5] = 10 mg/kg oral twice a day for 3.5 days
[6] = 50 mg/kg oral twice a day for 3 days
[7] = 100 mg/kg oral twice a day for 3 days
[8] = 25 mg/kg oral, 4 hours before irinotecan and 8 hours after irinotecan
[9] = 50 mg/kg oral, 6 hours before irinotecan and 6 hours after irinotecan
[10] = 10 mg/kg oral, 10 hours before 5-FU and 2 hours after 5-FU
[11] = 25 mg/kg oral, 8 hours before 5-FU and 4 hours after 5-FU
[12] = 10 mg/kg oral twice a day for 3 days

CDK4/cyclin D, sequence (P11802 whole entry): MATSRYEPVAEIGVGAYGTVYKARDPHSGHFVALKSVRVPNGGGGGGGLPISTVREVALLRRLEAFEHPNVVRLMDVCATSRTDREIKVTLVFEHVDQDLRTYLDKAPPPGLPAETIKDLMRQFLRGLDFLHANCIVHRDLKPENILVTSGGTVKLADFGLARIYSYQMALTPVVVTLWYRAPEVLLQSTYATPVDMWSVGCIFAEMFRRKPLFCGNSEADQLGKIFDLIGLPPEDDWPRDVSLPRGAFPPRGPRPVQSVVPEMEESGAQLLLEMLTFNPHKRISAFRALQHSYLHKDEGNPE
CDK4/cyclin D, sequence (P30281 whole entry partner): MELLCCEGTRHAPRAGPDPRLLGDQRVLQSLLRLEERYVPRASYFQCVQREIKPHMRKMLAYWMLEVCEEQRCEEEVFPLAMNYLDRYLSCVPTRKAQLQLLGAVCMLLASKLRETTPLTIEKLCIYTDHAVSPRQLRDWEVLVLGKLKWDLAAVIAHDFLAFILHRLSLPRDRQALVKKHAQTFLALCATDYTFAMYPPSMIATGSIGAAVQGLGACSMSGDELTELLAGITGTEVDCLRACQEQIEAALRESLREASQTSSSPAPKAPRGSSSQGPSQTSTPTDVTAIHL
CDK6/cyclin D, sequence (Q00534 whole entry): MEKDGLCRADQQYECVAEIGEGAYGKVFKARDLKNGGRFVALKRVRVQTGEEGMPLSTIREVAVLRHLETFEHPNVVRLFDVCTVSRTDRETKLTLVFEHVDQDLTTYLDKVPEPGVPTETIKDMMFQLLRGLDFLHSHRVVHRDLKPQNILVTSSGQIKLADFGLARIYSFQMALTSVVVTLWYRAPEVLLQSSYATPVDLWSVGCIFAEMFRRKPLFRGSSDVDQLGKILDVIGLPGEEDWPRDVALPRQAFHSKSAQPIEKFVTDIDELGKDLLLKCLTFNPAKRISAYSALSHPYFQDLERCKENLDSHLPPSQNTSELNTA
CDK6/cyclin D, sequence (P30281 whole entry partner): as the sequence (P30281 whole entry partner) above
CDK9/cyclin T, sequence (P50750 whole entry): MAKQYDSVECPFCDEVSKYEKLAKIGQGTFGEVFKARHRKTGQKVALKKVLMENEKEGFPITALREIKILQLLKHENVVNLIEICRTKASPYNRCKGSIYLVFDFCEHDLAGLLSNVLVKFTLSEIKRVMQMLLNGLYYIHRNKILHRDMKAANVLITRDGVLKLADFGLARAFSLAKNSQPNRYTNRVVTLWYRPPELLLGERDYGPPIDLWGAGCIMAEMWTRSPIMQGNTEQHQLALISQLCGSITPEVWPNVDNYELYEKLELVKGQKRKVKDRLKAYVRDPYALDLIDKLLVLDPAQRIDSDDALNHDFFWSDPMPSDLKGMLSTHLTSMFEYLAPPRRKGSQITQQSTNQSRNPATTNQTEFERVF
CDK9/cyclin T, sequence (O60563 whole entry partner): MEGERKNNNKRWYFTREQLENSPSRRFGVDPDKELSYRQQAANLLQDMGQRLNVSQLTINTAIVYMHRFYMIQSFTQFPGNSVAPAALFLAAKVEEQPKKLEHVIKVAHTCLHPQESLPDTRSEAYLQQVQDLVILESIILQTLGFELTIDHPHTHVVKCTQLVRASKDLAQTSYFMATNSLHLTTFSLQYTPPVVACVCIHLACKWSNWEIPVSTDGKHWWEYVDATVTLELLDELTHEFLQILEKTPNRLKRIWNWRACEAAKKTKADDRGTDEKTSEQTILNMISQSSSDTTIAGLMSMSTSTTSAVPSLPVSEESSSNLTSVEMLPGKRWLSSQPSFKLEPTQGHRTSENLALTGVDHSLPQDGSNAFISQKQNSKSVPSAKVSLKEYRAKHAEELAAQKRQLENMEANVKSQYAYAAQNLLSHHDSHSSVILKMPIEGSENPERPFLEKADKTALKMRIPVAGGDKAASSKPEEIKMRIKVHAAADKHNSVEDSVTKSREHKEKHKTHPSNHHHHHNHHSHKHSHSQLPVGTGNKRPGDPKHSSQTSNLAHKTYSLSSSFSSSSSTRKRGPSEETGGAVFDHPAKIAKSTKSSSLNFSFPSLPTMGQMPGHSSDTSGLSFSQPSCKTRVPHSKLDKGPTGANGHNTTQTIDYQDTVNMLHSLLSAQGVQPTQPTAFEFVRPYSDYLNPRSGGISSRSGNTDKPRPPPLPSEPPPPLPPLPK
CDK7/cyclin H, sequence (P50613 whole entry): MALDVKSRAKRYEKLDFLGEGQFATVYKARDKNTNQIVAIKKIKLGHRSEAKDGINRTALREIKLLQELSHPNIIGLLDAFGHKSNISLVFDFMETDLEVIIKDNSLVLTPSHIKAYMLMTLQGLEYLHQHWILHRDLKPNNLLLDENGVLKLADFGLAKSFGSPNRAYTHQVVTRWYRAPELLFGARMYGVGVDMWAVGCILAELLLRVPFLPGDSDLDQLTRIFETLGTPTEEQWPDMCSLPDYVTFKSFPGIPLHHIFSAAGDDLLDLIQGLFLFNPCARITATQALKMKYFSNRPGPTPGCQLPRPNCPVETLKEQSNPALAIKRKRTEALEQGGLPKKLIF
CDK7/cyclin H, sequence (P51946 whole entry partner): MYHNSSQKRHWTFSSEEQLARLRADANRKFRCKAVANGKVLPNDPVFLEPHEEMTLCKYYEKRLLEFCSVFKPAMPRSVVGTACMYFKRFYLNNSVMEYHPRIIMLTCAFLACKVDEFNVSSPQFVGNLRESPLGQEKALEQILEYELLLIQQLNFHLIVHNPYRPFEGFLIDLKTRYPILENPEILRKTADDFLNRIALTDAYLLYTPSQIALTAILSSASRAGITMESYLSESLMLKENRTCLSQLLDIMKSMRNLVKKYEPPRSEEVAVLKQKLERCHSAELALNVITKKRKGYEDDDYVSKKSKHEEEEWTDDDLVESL
CDK7/cyclin H, sequence (P51948 whole entry partner): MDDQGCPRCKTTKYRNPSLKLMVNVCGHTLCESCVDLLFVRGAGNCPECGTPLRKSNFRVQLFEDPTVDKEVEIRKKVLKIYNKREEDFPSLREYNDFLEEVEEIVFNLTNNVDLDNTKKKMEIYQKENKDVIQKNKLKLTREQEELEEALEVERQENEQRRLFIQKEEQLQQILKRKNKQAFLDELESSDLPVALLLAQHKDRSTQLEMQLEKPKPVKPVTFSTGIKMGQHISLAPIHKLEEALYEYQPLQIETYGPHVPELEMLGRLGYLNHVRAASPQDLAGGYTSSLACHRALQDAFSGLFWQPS

Row | Structure (SMILES) | pIC50 (CDK2/cyclin E) | pIC50 (CDK4/cyclin D) | pIC50 (CDK6/cyclin D) | pIC50 (CDK7/cyclin H) | pIC50 (CDK9/cyclin T) | pIC50 ([1]; read-out: Absolute IC 50) | pIC50 ([1]; read-out: Relative IC 50) | diarrhea relief rate [3, 5] | diarrhea relief rate [3, 6] | diarrhea relief rate [3, 7] | constipation relief rate [4, 8] | constipation relief rate [4, 9] | diarrhea relief rate [2, 10] | diarrhea relief rate [2, 11] | diarrhea relief rate [3, 12] | other results
1 | CC(=O)c1c(C)c2c(n(C3CCCC3)c1=O)=NC(Nc1ccc(N3CCN(S(=O)(=O)NCCN)CC3)cn1)NC=2 (centres unmarked) [Compound 1] | < 5.00 | > 7.30 | > 7.30 | < 5.00 | < 6.00 | > 6.00 | > 6.00 | 40% | 40% | 50% | 75% | 50% |  |  |  | diarrhea relief rate ([2]; 5 mg/kg oral, 8 hours before 5-FU and 4 hours after 5-FU): 50%; diarrhea relief rate ([2]; 10 mg/kg oral, 6 hours before and 6 hours after 5-FU): 40%; diarrhea relief rate ([2]; 25 mg/kg oral, 12 hours before 5-FU): 85%; diarrhea relief rate ([2]; 50 mg/kg oral, 8 hours before 5-FU and 4 hours after 5-FU): 60%; diarrhea relief rate ([2]; 75 mg/kg oral, 6 hours before and 6 hours after 5-FU): 50%; diarrhea relief rate ([2]; 100 mg/kg oral, 8 hours before 5-FU and 4 hours after 5-FU): 75%; diarrhea relief rate ([3]; 25 mg/kg oral twice a day for 3 days): 60%; diarrhea relief rate ([3]; 75 mg/kg oral twice a day for 4 days): 55%; diarrhea relief rate ([3]; 100 mg/kg oral twice a day for 3.5 days): 40%; constipation relief rate ([4]; 2.5 mg/kg oral, 4 hours before irinotecan and 8 hours after irinotecan): 20%; constipation relief rate ([4]; 5 mg/kg oral, 6 hours before irinotecan and 6 hours after irinotecan): 30%; constipation relief rate ([4]; 100 mg/kg oral, 4 hours before irinotecan and 8 hours after irinotecan): 40%; constipation relief rate ([4]; 100 mg/kg oral, 6 hours before irinotecan and 6 hours after irinotecan): 40%
2 | CC(=O)c1c(C)c2cnc(Nc3ccc(N4CCN(S(=O)(=O)NCC(C)N)CC4)cn3)nc2n(C2CCCC2)c1=O (centres unmarked) [Compound 3] | < 5.00 | > 7.30 | > 7.00 | < 5.00 | < 5.52 | > 5.00 | > 5.30 | 40% | 40% | 70% |  | 70% | 50% | 60% | 30% | diarrhea relief rate ([2]; 25 mg/kg oral, 2 hours before 5-FU and 10 hours after 5-FU): 40%; diarrhea relief rate ([2]; 150 mg/kg oral, 12 hours before 5-FU and 0 hours after 5-FU): 50%; diarrhea relief rate ([3]; 5 mg/kg oral twice a day for 4 days): 25%; diarrhea relief rate ([3]; 50 mg/kg oral twice a day for 3.5 days): 40%; constipation relief rate ([4]; 25 mg/kg oral, 8 hours before irinotecan and 4 hours after irinotecan): 50%; constipation relief rate ([4]; 25 mg/kg oral, 12 hours before irinotecan and 0 hours after irinotecan): 30%; constipation relief rate ([4]; 50 mg/kg oral, 4 hours before irinotecan and 8 hours after irinotecan): 60%
3 | CC(=O)c1c(C)c2cnc(Nc3ccc(N4CCN(S(=O)(=O)NCC(C)(C)CN)CC4)cn3)nc2n(C2CCCC2)c1=O [Compound 6] | < 5.00 | > 7.30 | > 7.00 | < 5.52 | < 6.00 | > 6.00 | > 6.00 |  |  | 60% | 75% | 75% | 60% | 75% | 30% | diarrhea relief rate ([2]; 50 mg/kg oral, 6 hours before and 6 hours after 5-FU): 80%; diarrhea relief rate ([2]; 100 mg/kg oral, 12 hours before 5-FU): 50%; diarrhea relief rate ([3]; 20 mg/kg oral twice a day for 3.5 days): 50%; diarrhea relief rate ([3]; 30 mg/kg oral twice a day for 3 days): 50%; diarrhea relief rate ([3]; 50 mg/kg oral twice a day for 4 days): 75%; diarrhea relief rate ([3]; 80 mg/kg oral twice a day for 3.5 days): 60%; constipation relief rate ([4]; 10 mg/kg oral, 4 hours before irinotecan and 8 hours after irinotecan): 40%; constipation relief rate ([4]; 25 mg/kg oral, 6 hours before irinotecan and 6 hours after irinotecan): 60%; constipation relief rate ([4]; 150 mg/kg oral, 12 hours before irinotecan): 25%
